{"source": "patent US10045952B2", "about": "“Anti-Viral Compound and Composition” (Forest Herbs Research Limited, priority 2013, dated 2018)", "key": {"[1]": {"tested_on": "HSV-1", "assay": "Crystal violet assay, anti-viral activity against HSV-1 in HaCaT cells", "type": "cell-based, Herpes simplex type 1 virus", "method": "The crystal violet assay depends on the ability of adherent cell lines such as Vero to stick to the bottom of tissue culture plates. Damaged or dead cells lose their ability to adhere and are removed during a washing process. Viable cells remaining are stained with crystal violet, which is then released from the cells and measured in a spectrophotometer. Vero cells were seeded at 3×10^5 cells/ml overnight at 37° C. in 96-well tissue culture plates. When cells had reached confluency, 50 μl of the growth media was removed and replaced with 25 μl of virus and 25 μl of test product. Controls were the same as those used in the xCelligence assay. The assay was terminated after 96 hours which is the length of time taken to see CPE in the control wells. In the first test (results shown in FIGS. 2A and B), the HSV-1 anti-viral activity of pure polygodial was assessed in comparison to Acyclovir in both Vero cells (FIG. 2A) and HaCaT cells (FIG. 2B)."}, "[2]": {"tested_on": "HSV-1", "assay": "Crystal violet assay, anti-viral activity against HSV-1 in Vero cells", "type": "cell-based, Herpes simplex type 1 virus", "method": "A wild-type HSV-1 obtained from ESR, Upper Hutt, was cultured in Vero (African Green Monkey kidney) tissue culture cells. HSV-1 virus was added to confluent Vero cell monolayers and allowed to infect until >70% cytopathic effect was observed. The infected cultures were then frozen and thawed three times and centrifuged at 3000 rpm for 15 minutes. The supernatant was stored at −80° C. until use.\n(§1) The crystal violet assay depends on the ability of adherent cell lines such as Vero to stick to the bottom of tissue culture plates. Damaged or dead cells lose their ability to adhere and are removed during a washing process. Viable cells remaining are stained with crystal violet, which is then released from the cells and measured in a spectrophotometer.\n(§2) Vero cells were seeded at 3×10^5 cells/ml overnight at 37° C. in 96-well tissue culture plates. When cells had reached confluency, 50 μl of the growth media was removed and replaced with 25 μl of virus and 25 μl of test product. Controls were the same as those used in the xCelligence assay. The assay was terminated after 96 hours which is the length of time taken to see CPE in the control wells."}, "[3]": {"tested_on": "Vero cells and HaCaT cells", "assay": "Cytotoxicity to the cells used in the in vitro anti-viral testing (crystal violet assay)", "type": "cell-based, African Green Monkey", "conditions": "at the concentrations tested in the anti-viral assay", "method": "as §1, §2\nIn this test, it was confirmed that polygodial is not cytotoxic at the concentrations tested because where strong anti-viral activity is present, the cells are alive and uninfected by the virus."}, "[4]": {"tested_on": "cells", "conditions": "literature statement; cited from earlier work"}, "[5]": {"conditions": "4 μl/ml Acyclovir, virus only control infection rate about 75%"}}, "note": "“Also recorded” adds a separate entry of the source.", "data": [{"smiles": "Nc1nc2c(ncn2COCCO)c(=O)[nH]1", "note": "[Acyclovir, reference compound]", "values": [{"measurement": "uninfected HaCaT cells, Acyclovir control, second test (FIG. 3B)", "setting": "[1]; [5]", "value": 75, "unit": "%"}, {"measurement": "uninfected cells, Acyclovir control, first test (FIGS. 2A and B)", "setting": "[2]; 4 μl/ml Acyclovir, Vero and HaCaT not distinguished, virus only control infection rate about 80%", "value": 80, "unit": "%"}, {"measurement": "uninfected Vero cells, Acyclovir control, second test (FIG. 3A)", "setting": "[2]; [5]", "value": 60, "unit": "%"}]}, {"smiles": "CC1(C)CCC[C@]2(C)[C@@H](C=O)C(C=O)=CC[C@@H]12", "note": "[polygodial]", "values": [{"measurement": "concentration at which anti-viral effect was comparative to 4 μl/ml Acyclovir", "setting": "[1]; HaCaT cells", "value": 0.3125, "unit": "mg/mL"}, {"measurement": "cytotoxicity", "setting": "[3]", "value": "not cytotoxic; also recorded: low cytotoxicity"}, {"measurement": "MIC", "setting": "[2]; Human alphaherpesvirus 1, calculated, HSV-1, cell line not distinguished (Vero and HaCaT)", "value": "600 to 1200", "unit": "µg/mL"}, {"measurement": "concentration at which anti-viral effect was comparative to 4 μl/ml Acyclovir", "setting": "[2]; Vero cells", "value": 0.15, "unit": "mg/mL"}]}, {"smiles": "CC1(C)CCC[C@@]2(C)[C@H]1CC=C(C=O)[C@]2(O)C=O", "note": "[warburganal]", "values": [{"measurement": "cytotoxicity", "setting": "[4]", "value": "particularly cytotoxic"}]}]}
